Source: PubChem BioAssay (NCI)
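Briefly, cells in 96-well plates were exposed to five compound concentrations for 48 h, and endpoints were estimated by linear interpolation. GI50 marks 50% less growth. TGI is the concentration that stops growth completely.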

Legend:
Assay in all cases: NCI anticancer screen, dose series, 48 h
[1] = tested on: BT-549 breast
[2] = tested on: HCT-116 colon
[3] = tested on: HOP-62 NSCLC
[4] = tested on: LOX IMVI melanoma
[5] = tested on: M14 melanoma
[6] = tested on: MOLT-4 leukemia
[7] = tested on: NCI-H460 lung
[8] = tested on: SK-MEL-28 melanoma
[9] = tested on: SW-620 colon
[10] = tested on: COLO 205 colon

Compound	GI50 [1] [µM]	TGI [1] [µM]	GI50 [2] [µM]	TGI [2] [µM]	GI50 [3] [µM]	TGI [3] [µM]	GI50 [4] [µM]	TGI [4] [µM]	GI50 [5] [µM]	TGI [5] [µM]	GI50 [6] [µM]	TGI [6] [µM]	GI50 [7] [µM]	TGI [7] [µM]	GI50 [8] [µM]	TGI [8] [µM]	GI50 [9] [µM]	TGI [9] [µM]	TGI [10] [µM]	GI50 [10] [µM]
CCCCCCCCCCCCCCCCCC[n+]1ccc2c(C)c3c(c(C)c2c1)c1cc(O)ccc1n3CC	2.72	10.5	1.19	12.7	2.66	10.4	2.73	10.3	1.43	3.34	2.53	14.9	1.72	4.18	1.91	4.98	1.79	7.1	–	–
NC(CSC1c2ccccc2-c2ccccc21)C(=O)O (centres undefined)	–	> 100	–	> 100	–	> 100	–	> 100	–	> 100	–	> 100	–	> 100	–	> 100	–	> 100	> 100	–
CC(C)NCCCn1c(Sc2cc3c(cc2I)OCO3)nc2c(N)ncnc21	1.51	> 100	0.0628	> 100	0.263	> 100	0.0787	–	0.233	20.9	0.0915	> 91.9	0.0576	> 100	0.418	44.5	0.0592	> 100	10.8	0.0477
O=C1NC(=O)C(N2C(=O)c3ccccc3C2=O)CC1O (centres undefined)	> 100	> 100	> 100	> 100	> 100	> 100	> 100	> 100	> 100	> 100	> 100	> 100	> 100	> 100	> 100	> 100	> 100	> 100	> 100	> 100
CNCCCNCCCCNCCCN1C(=O)c2ccc3c4c(ccc(c24)C1=O)C(=O)N(CCCNCc1ccccc1OC)C3=O	3.4	15.8	2.04	21.1	2.33	25.6	3.03	14	2.63	13.3	5.21	38.5	2.53	12.1	1.4	10.1	2.16	15.8	8.16	1.38
COc1ccc2cc1Oc1ccc(cc1)C[C@H]1c3c(cc4c(c3Oc3cc5c(cc3OC)CCN(C)[C@@H]5C2)OCO4)CCN1C	5.12	11.8	0.726	6.8	2.98	9.6	0.702	1.52	0.903	1.76	3.92	12.9	2.82	9.03	0.911	1.86	2.11	8.47	1.36	0.356
COc1ccc(-c2cc(-c3ccc(C)cc3)nc3nc(=S)[nH]c(N)c23)cc1	27.1	60.4	11.3	26.6	18.8	40.6	17.7	34.5	19.1	37.4	35.6	72.3	12	27.5	40.6	> 100	17.9	33.9	91.6	26.8
COc1ccc2c(c1)N(CCO)C1=C(C(=O)OC1)C2c1cccc(F)c1 (centres undefined)	0.761	> 14.4	0.406	> 50	–	> 50	0.454	> 50	0.285	> 50	0.538	> 50	0.227	> 50	5.59	> 50	0.236	> 50	3.25	0.526
O=c1[nH]c(=O)n(C2CC(O)C(COP(=O)(OCc3ccc([N+](=O)[O-])o3)N(CCCCCl)CC(O)CO)O2)cc1F (centres undefined)	0.663	> 100	0.999	> 100	0.412	> 26.2	< 0.0226	> 100	0.365	2.23	0.285	> 100	< 0.0474	> 100	> 100	> 100	0.0447	> 100	> 100	> 22.5
O=C(/C=C\c1cccc([N+](=O)[O-])c1)/C=C/c1cccc([N+](=O)[O-])c1	3.48	12.5	0.2	0.407	–	–	1.73	4.56	2.49	7.33	–	–	6.61	> 100	> 100	> 100	1.9	4.53	7.94	3.03
COc1cc2c(cc1C1COc3cc4occc4cc3C1=O)OCO2 (centres undefined)	–	> 100	–	> 100	–	> 100	–	> 100	–	> 100	–	> 100	–	–	–	> 100	–	> 100	> 100	–
COc1cc(N2C(=O)[C@H](O)C2c2ccc(SC)cc2)cc(OC)c1OC (some centres undefined)	< 0.01	0.0835	< 0.01	> 100	< 0.01	> 100	< 0.01	> 100	< 0.01	0.0198	0.0334	53.4	< 0.01	13.1	–	–	< 0.01	> 100	0.0357	0.0101
N#CC(=C1C=CC(=NO)C=C1)c1ccc(Cl)cc1	–	–	–	21.6	–	41.6	–	12	–	41.5	–	39.5	–	56.4	–	37.9	–	24	34.5	–
C1CCC([PH+](C2CCCCC2)C2CCCCC2[PH+](C2CCCCC2)C2CCCCC2)CC1.[Au].[CH-]1CCCCC1CC1CCCC[N-]1 (centres undefined)	0.33	1.51	–	–	0.349	2.58	–	–	0.297	1.27	–	–	0.303	1.09	0.433	1.94	0.371	1.41	0.696	0.262
Fc1ccc(/C=N/n2c(-c3ccc(F)c(Cl)c3)nn(CNc3ccccc3C(F)(F)F)c2=S)cc1	–	–	55.4	> 100	> 100	> 100	54.9	> 100	43.1	> 100	28.4	> 100	43.3	> 100	97.2	> 100	86.2	> 100	> 100	47.7
CO[C@H]1CC(O[C@@H]2/C(C)=C/C[C@@H]3C[C@@H](C[C@]4(C=C[C@H](C)[C@@H](C5CCCCC5)O4)O3)OC(=O)[C@@H]3C=C(C)[C@@H](O)[C@H]4OC/C(=C\C=C\[C@@H]2C)[C@]43O)O[C@@H](C)C1O[C@H]1C[C@H](OC)[C@@H](O)[C@H](C)O1 (some centres undefined)	1.78	3.24	1.4	2.72	1.73	3.22	–	–	1.67	3.13	2.05	4.83	–	–	1.58	3.03	–	–	3.71	2.03
N#CC1(C(N)=O)C(c2ccc(Cl)cc2)CC(=O)CC1c1ccc(Cl)cc1 (centres undefined)	14.6	27.7	14.8	28	–	–	17	33.3	16.2	29.7	17.1	54.3	17.4	33.4	16.6	30.6	17.2	31.1	30.4	15.6
FC(F)(F)c1ccc(-c2cnc(-c3ncon3)nc2NC2CCCCCC2)cc1	38.5	> 100	33.9	> 100	76.8	> 100	–	–	56.3	> 100	19.8	55	37.2	> 100	99.2	> 100	43.3	> 100	84.8	27.7
COc1ccc(-c2[nH]c3ccccc3c2-c2ccc(OC)cc2)cc1	–	–	3.93	14.6	10.2	26.2	3.77	14.8	3.9	14.8	2.68	9.62	3.65	14	8.6	31.5	4.53	36.8	16.8	4.13
O=C(/C=C/c1cc2ccccc2[nH]c1=O)/C=C/c1cc2ccccc2[nH]c1=O	6.86	12.4	1.28	2.09	14.5	> 76.9	–	–	–	–	24	> 100	32.3	> 100	14.8	> 66.5	6.34	14.8	> 59.7	10.2
